The values below come from patent publication US9802921B2, “Fluoromethyl-substituted pyrrole carboxamides iv” (Grünenthal GmbH, priority 2013, dated 2017).

T1 sequence (Q00975 whole entry): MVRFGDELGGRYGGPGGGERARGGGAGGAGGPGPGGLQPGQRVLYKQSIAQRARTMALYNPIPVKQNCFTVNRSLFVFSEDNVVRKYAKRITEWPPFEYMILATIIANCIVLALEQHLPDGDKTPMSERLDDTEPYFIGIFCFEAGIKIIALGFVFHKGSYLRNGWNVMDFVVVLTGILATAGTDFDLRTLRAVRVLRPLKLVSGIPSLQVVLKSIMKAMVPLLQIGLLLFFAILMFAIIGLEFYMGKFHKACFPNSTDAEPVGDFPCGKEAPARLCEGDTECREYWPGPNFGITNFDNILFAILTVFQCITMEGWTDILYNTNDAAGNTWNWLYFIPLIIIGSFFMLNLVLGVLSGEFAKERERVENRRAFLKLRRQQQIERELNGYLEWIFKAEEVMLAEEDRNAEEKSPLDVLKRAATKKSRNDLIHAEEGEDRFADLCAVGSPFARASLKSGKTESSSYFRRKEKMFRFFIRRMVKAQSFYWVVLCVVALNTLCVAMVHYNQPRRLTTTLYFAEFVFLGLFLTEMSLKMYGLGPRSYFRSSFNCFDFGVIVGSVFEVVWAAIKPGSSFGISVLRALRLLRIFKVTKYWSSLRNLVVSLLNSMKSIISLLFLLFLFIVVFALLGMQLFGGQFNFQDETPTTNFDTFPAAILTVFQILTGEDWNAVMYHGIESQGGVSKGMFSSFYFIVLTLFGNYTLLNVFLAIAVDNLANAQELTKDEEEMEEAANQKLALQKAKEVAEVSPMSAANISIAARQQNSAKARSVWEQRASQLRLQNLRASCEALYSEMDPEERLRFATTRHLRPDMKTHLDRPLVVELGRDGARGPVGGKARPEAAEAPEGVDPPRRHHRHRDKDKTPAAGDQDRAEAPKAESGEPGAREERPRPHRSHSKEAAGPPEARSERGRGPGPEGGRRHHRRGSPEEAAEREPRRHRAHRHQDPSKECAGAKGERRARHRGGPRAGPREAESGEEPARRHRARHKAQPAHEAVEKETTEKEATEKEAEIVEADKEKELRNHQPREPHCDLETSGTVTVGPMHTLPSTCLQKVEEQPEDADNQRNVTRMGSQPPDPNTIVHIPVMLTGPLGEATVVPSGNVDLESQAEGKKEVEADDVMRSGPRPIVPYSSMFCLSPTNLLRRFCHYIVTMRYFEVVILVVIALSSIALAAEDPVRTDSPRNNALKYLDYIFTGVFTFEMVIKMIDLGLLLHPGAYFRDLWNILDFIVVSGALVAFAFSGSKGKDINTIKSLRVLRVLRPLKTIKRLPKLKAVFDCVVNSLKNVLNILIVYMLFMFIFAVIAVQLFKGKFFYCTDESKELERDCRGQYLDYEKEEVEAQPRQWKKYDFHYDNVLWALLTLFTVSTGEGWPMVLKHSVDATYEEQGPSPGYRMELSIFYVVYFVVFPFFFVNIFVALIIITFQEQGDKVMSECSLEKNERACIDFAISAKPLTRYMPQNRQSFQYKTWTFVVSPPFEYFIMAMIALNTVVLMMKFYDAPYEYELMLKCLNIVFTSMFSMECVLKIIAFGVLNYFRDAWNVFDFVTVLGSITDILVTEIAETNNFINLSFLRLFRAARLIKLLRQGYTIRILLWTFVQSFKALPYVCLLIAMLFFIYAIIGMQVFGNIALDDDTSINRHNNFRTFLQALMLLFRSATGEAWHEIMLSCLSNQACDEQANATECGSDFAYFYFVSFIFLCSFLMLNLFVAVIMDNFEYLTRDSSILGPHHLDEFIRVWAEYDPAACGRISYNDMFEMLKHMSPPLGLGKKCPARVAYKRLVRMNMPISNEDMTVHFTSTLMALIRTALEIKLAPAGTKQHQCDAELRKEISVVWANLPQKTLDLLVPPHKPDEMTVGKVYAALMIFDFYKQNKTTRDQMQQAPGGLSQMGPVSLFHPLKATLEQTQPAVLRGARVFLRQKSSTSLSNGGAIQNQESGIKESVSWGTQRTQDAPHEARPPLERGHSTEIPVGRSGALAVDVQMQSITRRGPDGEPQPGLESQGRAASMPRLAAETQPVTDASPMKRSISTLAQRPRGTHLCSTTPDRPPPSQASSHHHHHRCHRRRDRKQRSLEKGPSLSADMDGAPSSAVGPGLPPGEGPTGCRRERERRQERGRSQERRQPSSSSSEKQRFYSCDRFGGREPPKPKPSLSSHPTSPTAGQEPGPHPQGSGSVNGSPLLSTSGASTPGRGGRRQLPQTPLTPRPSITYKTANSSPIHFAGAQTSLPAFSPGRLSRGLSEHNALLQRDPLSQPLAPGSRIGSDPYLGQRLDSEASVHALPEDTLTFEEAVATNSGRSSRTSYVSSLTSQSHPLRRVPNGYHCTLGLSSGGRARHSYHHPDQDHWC
T1 sequence (P54289 25-1103, further chain): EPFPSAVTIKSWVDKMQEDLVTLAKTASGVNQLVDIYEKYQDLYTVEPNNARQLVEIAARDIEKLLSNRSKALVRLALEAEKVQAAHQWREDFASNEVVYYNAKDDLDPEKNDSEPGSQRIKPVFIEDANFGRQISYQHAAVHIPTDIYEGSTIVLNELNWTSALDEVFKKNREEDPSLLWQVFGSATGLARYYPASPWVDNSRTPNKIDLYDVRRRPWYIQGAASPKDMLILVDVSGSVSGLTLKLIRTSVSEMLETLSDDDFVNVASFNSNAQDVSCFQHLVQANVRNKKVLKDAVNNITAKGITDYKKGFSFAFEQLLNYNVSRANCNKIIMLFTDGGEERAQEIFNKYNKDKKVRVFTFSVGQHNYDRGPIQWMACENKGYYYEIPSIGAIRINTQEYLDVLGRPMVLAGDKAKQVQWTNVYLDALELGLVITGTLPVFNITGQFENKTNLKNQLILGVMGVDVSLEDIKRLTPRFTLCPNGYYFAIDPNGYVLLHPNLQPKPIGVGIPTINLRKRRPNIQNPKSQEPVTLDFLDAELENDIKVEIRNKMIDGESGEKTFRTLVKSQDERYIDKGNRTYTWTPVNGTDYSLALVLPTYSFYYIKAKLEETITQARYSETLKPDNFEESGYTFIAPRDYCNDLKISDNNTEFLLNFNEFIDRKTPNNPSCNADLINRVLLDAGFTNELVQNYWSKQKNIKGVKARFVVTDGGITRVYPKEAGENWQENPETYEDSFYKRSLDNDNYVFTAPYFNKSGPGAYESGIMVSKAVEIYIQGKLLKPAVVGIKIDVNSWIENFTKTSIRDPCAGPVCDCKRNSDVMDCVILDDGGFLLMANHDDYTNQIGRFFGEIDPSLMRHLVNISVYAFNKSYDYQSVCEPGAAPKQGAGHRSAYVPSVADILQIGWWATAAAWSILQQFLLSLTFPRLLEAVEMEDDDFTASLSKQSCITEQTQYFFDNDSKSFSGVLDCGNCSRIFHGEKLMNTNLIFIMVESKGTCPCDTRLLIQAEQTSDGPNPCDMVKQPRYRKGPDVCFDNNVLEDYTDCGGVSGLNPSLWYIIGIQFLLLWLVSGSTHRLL
T1 sequence (P54284 whole entry, further chain): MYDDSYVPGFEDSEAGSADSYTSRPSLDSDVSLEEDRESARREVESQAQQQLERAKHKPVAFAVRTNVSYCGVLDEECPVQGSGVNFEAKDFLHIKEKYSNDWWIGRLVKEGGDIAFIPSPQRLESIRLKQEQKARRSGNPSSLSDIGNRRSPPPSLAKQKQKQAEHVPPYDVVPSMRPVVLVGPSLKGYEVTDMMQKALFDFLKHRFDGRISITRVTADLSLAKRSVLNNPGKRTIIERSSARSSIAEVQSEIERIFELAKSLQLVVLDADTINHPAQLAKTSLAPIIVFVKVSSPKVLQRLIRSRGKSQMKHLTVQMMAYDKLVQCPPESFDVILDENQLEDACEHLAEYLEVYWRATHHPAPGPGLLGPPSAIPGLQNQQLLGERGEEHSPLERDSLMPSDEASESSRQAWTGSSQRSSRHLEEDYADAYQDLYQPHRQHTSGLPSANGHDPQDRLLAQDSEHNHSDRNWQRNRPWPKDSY

The test addresses T1, Human CaV2.2 channels (Homo sapiens, UniProt Q00975).
T1 construct: expressed in transfected cells
Nature of the test: Fluorescent assay for CaV2.2 channels using potassium depolarization to induce channel opening (FLIPR, Fluo 4). The test is classed as cell-based. As to conditions: read-out: Activity Category: %-Inhib (CaV2.2) @3 μM @30 mM KCl; 3 μM test compound; 30 mM KCl as printed; HEK293 cells stably expressing human CaV2.2. The text has this:
In the process, the Ca^2+ influx is quantified in the FLIPR assay with the aid of a Ca^2+-sensitive dye (type Fluo-4, Molecular Probes Europe BV, Leiden, the Netherlands) in a fluorescent imaging plate reader (FLIPR 3, Molecular Devices, Sunnyvale, USA), as described hereinafter.
Human CaV2.2 channels were stably expressed in HEK293 cells together with alpha2-delta and beta subunits of voltage gated calcium channels. In addition, an inwardly rectifying potassium channel (Kir2.3) was stably expressed in these cells to augment control of the cell membrane potential by the concentration of extracellular potassium ions. Raise of the extracellular potassium concentration leads to depolarization of the membrane potential and thus regulates the voltage dependent state of CaV2.2 channels. For preparation, cells were seeded in black poly-D-lysine coated 96-well plates (Becton Dickinson, Biocoat 4640) in 100 μL medium [500 mL DMEM/F-12 plus Glutamax (Invitrogen 31331-093) plus 5.5 mL MEM NEAA 100× (Invitrogen 11140-035) plus 50 mL FBS decomplemented (Invitrogen 10270-106) plus 200 μg/mL Geneticin (Invitrogen 10131-027) plus 50 μg/mL Hygromycin B (Invitrogen 10687-010) plus 2 μg/mL Blasticidin (anti-bl5b Invivo-Gen) plus 0.2 μg/mL Puromycin (A 11138-03)] at a cell density of 30.000 cells per well. Plates were incubated at 37° C. (5% CO2) for 20 to 23 h. On the day of experiment medium was discarded and cells were loaded with Fluo 4 by addition of 100 μL of basic assay buffer (10 mM HEPES, 1 mM KCl, 149 mM NaCl, 0.8 mM CaCl2, 1.7 mM MgCl2, 10 mM Glucose, 0.1% BSA. pH 7.4) containing 2 μM Fluo 4 (Molecular Probes; F-14201), 0.01% pluronic acid (Molecular Probes; P-6866) and 2.5 mM probenecid (Molecular Probes; P36400). Cells were incubated in the dark at 25° C. for 60 min. Then dye containing buffer was discarded and 100 μL basic (1 mM KCl) or alternative (30 mM KCl) assay buffer was added. The alternative assay buffer contained altered concentrations of KCl (30 mM) and NaCl (120 mM) and was used in order to promote the inactivated channel state. After that 25 μL of basic or alternative assay buffer with or without test compound were added and cells were incubated again in the dark at 25° C. for 15 min. Fluorescence intensity was measured on a FLIPR 3 instrument (Molecular Devices Corp., Sunnyvale, Calif.) with excitation at 480 nm and emission at 535 nm. After continuously reading fluorescence for 30 sec, 50 μL of basic assay buffer containing 210 mM KCl (NaCl omitted) were added for depolarization. Peak fluorescent signal intensity was determined and the amplitude of the peak signal, normalized to base line, was used to measure channel inhibition by test compounds.
Regarding `Cc1c(-c2ccc(Cl)cc2)c(C(=O)N2CCOCC2)n(Cc2nncs2)c1C(F)(F)F` [Example 024, [3-(4-Chlorophenyl)-4-methyl-1-([1,3,4]thiadiazol-2-yl-methyl)-5-(trifluoromethyl)-1H-pyrrol-2-yl]-morpholin-4-yl-methanone], the inhibition at 3 µM lay within 40 to 75%.
In the case of `Cc1c(-c2ccc(Cl)cc2)c(C(=O)N2CCOCC2)n(Cc2cncc(Cl)c2)c1C(F)(F)F` [Example 028, [3-(4-Chlorophenyl)-1-[(5-chloro-pyridin-3-yl)-methyl]-4-methyl-5-(trifluoromethyl)-1H-pyrrol-2-yl]-morpholin-4-yl-methanone] it was greater than 95%; in that of `Cc1c(-c2ccc(Cl)cc2)c(C(=O)N(C)CCS(C)(=O)=O)n(Cc2nccn2C)c1C(F)(F)F` [Example 002, 3-(4-Chlorophenyl)-N,4-dimethyl-1-[(1-methyl-1H-imidazole-2-yl)-methyl]-N-(2-methylsulfonyl-ethyl)-5-(trifluoromethyl)-1H-pyrrole-2-carboxylic acid amide], 40 to 75%; in that of `Cc1c(-c2ccc(Cl)cc2)c(C(=O)N2CCOCC2)n(Cc2cncnc2)c1C(F)(F)F` [Example 052, [3-(4-Chlorophenyl)-4-methyl-1-(pyrimidin-5-yl-methyl)-5-(trifluoromethyl)-1H-pyrrol-2-yl]-morpholin-4-yl-methanone], 40 to 75%.
With `Cc1c(-c2ccc(Cl)cc2)c(C(=O)N(C)C(C)C)n(Cc2ncccn2)c1C(F)(F)F` [Example 061, 3-(4-Chlorophenyl)-N-isopropyl-N,4-dimethyl-1-(pyrimidin-2-yl-methyl)-5-(trifluoromethyl)-1H-pyrrole-2-carboxylic acid amide] the figure was greater than 95%; with `Cc1c(-c2ccc(Cl)cc2)c(C(=O)N2CCOCC2)n(Cc2cn(C)nn2)c1C(F)(F)F` [Example 017, [3-(4-Chlorophenyl)-4-methyl-1-[(1-methyl-1H-[1,2,3]triazol-4-yl)-methyl]-5-(trifluoromethyl)-1H-pyrrol-2-yl]-morpholin-4-yl-methanone], 40 to 75%; with `Cc1c(-c2ccc(Cl)cc2F)c(C(=O)N2CCOCC2)n(Cc2ncccn2)c1C(F)(F)F` [Example 062, [3-(4-Chloro-2-fluoro-phenyl)-4-methyl-1-(pyrimidin-2-yl-methyl)-5-(trifluoromethyl)-1H-pyrrol-2-yl]-morpholin-4-yl-methanone], greater than 95%.
With `Cc1cnc(Cn2c(C(=O)N3CCOCC3)c(-c3ccc(Cl)cc3)c(C)c2C(F)(F)F)cn1` [Example 042, [3-(4-Chlorophenyl)-4-methyl-1-[(5-methyl-pyrazin-2-yl)-methyl]-5-(trifluoromethyl)-1H-pyrrol-2-yl]-morpholin-4-yl-methanone] the figure was greater than 95%; with `Cc1c(-c2ccc(Cl)cc2)c(C(=O)N2CCOCC2)n(Cc2ccc[nH]c2=O)c1C(F)(F)F` [Example 053, 3-[[3-(4-Chlorophenyl)-4-methyl-2-(morpholine-4-carbonyl)-5-(trifluoromethyl)-1H-pyrrol-1-yl]-methyl]-1H-pyridin-2-one], 40 to 75%; with `Cc1c(-c2ccc(Cl)cc2)c(C(=O)N(C)CCS(C)(=O)=O)n(Cc2ncccn2)c1C(F)(F)F` [Example 039, 3-(4-Chlorophenyl)-N,4-dimethyl-N-(2-methylsulfonyl-ethyl)-1-(pyrimidin-2-yl-methyl)-5-(trifluoromethyl)-1H-pyrrole-2-carboxylic acid amide], 75 to 95%.
As to `Cc1ccnc(Cn2c(C(F)(F)F)cc(-c3ccc(Cl)cc3)c2C(=O)N(C)CC(C)(C)C)n1` [Example 036, 3-(4-Chlorophenyl)-N-(2,2-dimethyl-propyl)-N-methyl-1-[(4-methyl-pyrimidin-2-yl)-methyl]-5-(trifluoromethyl)-1H-pyrrole-2-carboxylic acid amide], the inhibition at 3 µM was greater than 95%.
Consider `CN(CC(C)(C)C)C(=O)c1c(-c2ccc(Cl)cc2)cc(C(F)(F)F)n1Cc1ccc(F)cn1` [Example 029, 3-(4-Chlorophenyl)-N-(2,2-dimethyl-propyl)-1-[(5-fluoro-pyridin-2-yl)-methyl]-N-methyl-5-(trifluoromethyl)-1H-pyrrole-2-carboxylic acid amide], for which the inhibition at 3 µM is greater than 95%.
Regarding `Cc1cc(CN(C)C(=O)c2c(-c3ccc(Cl)cc3F)c(C)c(C(F)(F)F)n2Cc2ncccn2)no1` [Example 066, 3-(4-Chloro-2-fluoro-phenyl)-N,4-dimethyl-N-[(5-methyl-isoxazol-3-yl)-methyl]-1-(pyrimidin-2-yl-methyl)-5-(trifluoromethyl)-1H-pyrrole-2-carboxylic acid amide], the inhibition at 3 µM was greater than 95%.
As to `Cc1c(-c2ccc(Cl)cc2)c(C(=O)N2CC(F)(F)C2)n(-c2cnccn2)c1C(F)(F)F` [Example 050, [3-(4-Chlorophenyl)-4-methyl-1-pyrazin-2-yl-5-(trifluoromethyl)-1H-pyrrol-2-yl]-(3,3-difluoro-azetidin-1-yl)-methanone], the inhibition at 3 µM was 75 to 95%.
